Columns and labels:
Type in all cases: in vivo
Amaranthus retroflexus = assay: greenhouse test, post-emergence treatment, AMARE
Excerpt: (§1) The culture containers used were plastic flowerpots containing loamy sand with approximately 3.0% of humus as the substrate. The seeds of the test plants were sown separately for each species.
(§2) For the post-emergence treatment, the test plants were first grown to a height of 3 to 15 cm, depending on the plant habit, and only then treated with the active ingredients which had been suspended or emulsified in water. For this purpose, the test plants were either sown directly and grown in the same containers, or they were first grown separately as seedlings and transplanted into the test containers a few days prior to treatment.
(§3) Depending on the species, the plants were kept at 10-25° C. or 20-35° C., respectively.
(§4) The test period extended over 2 to 4 weeks. During this time, the plants were tended, and their response to the individual treatments was evaluated.
(§5) Evaluation was carried out using a scale from 0 to 100. 100 means no emergence of the plants, or complete destruction of at least the aerial moieties, and 0 means no damage, or normal course of growth. A good herbicidal activity is given at values of at least 70 and a very good herbicidal activity is given at values of at least 85.
(§6) The plants used in the greenhouse experiments were of the following species: […]

Abutilon theophrasti = assay: greenhouse test, post-emergence treatment, ABUTH
Excerpt: as §1, §2, §3, §4, §5, §6

Apera spica-venti = assay: greenhouse test, pre-emergence treatment, APESV
How it was run: (§7)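 Damage scored visually on a 0-100 scale (100 = no emergence or complete destruction of aerial parts, 0 = normal growth) after 2 to 4 weeks. Treatment was applied pre-emergence as an aqueous suspension or emulsion immediately after sowing in loamy sand (approx. 3.0% humus).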

Setaria viridis = assay: greenhouse test, post-emergence treatment, SETVI
Excerpt: as §1, §2, §3, §4, §5, §6

Echinocloa crus-galli [1] = assay: greenhouse test, post-emergence treatment, ECHCG; settings: post-emergence
How it was run: (§8)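 Post-emergence greenhouse herbicide test: plants at 3–15 cm sprayed with aqueous formulation of compound, then evaluated on a 0–100 damage scale after 2–4 weeks.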

Poa annua = assay: greenhouse test, pre-emergence treatment, POAAN; settings: 2000 g/ha
Excerpt: as §1
For the pre-emergence treatment, the active ingredients, which had been suspended or emulsified in water, were applied directly after sowing by means of finely distributing nozzles. The containers were irrigated gently to promote germination and growth and subsequently covered with transparent plastic hoods until the plants had rooted. This cover caused uniform germination of the test plants, unless this had been impaired by the active ingredients.
as §3, §4, §5, §6

Alopecurus myosuroides = assay: greenhouse test, post-emergence treatment, ALOMY; settings: post-emergence
How it was run: as §8

Echinocloa crus-galli [2] = assay: greenhouse test, pre-emergence treatment, ECHCG
How it was run: as §7

SMILES: CC(C)(O)c1nc(C2CC2)ncc1-c1ccccc1Cl [Ex. 86]
- herbicidal activity (Amaranthus retroflexus; 1000 g/ha): good (A good herbicidal activity is given at values of at least 70)
- herbicidal activity (Abutilon theophrasti; 1000 g/ha): good (A good herbicidal activity is given at values of at least 70)
- herbicidal activity (Apera spica-venti; 1000 g/ha): good (A good herbicidal activity is given at values of at least 70)
- herbicidal activity (Setaria viridis; 1000 g/ha): very good (a very good herbicidal activity is given at values of at least 85)

SMILES: COc1ncc(-c2ccccc2Cl)c(/C=C/c2ccco2)n1 [Ex. 228]
- herbicidal activity (Abutilon theophrasti; 1000 g/ha): good (A good herbicidal activity is given at values of at least 70)
- herbicidal activity (Echinocloa crus-galli [1]; 1000 g/ha): good (A good herbicidal activity is given at values of at least 70)
- herbicidal activity (Apera spica-venti; 1000 g/ha): very good (a very good herbicidal activity is given at values of at least 85)

SMILES: OC(c1nc(C2CC2)ncc1-c1ccccc1Cl)C(O)c1c(Cl)ccc(Cl)c1Cl (stereo not shown) [Ex. 241]
- herbicidal activity (Echinocloa crus-galli [1]; 2000 g/ha): good (A good herbicidal activity is given at values of at least 70)
- herbicidal activity (Poa annua): very good (a very good herbicidal activity is given at values of at least 85)

SMILES: Cc1coc(C)c1-c1nc(C2CC2)ncc1-c1ccccc1Br [Ex. 252]
- herbicidal activity (Abutilon theophrasti; 1000 g/ha): very good (a very good herbicidal activity is given at values of at least 85)

SMILES: C=Cc1nc(C2CC2)ncc1-c1ccccc1Cl [Ex. 211]
- herbicidal activity (Alopecurus myosuroides; 2000 g/ha): good (A good herbicidal activity is given at values of at least 70)
- herbicidal activity (Echinocloa crus-galli [1]; 2000 g/ha): very good (a very good herbicidal activity is given at values of at least 85)
- herbicidal activity (Apera spica-venti; 2000 g/ha): good (A good herbicidal activity is given at values of at least 70)
- herbicidal activity (Poa annua): good (A good herbicidal activity is given at values of at least 70)

SMILES: Cc1ncoc1-c1nc(C2CC2)ncc1-c1cc(C(F)(F)F)ccc1Cl [Ex. 262]
- herbicidal activity (Amaranthus retroflexus; 1000 g/ha): very good (a very good herbicidal activity is given at values of at least 85)
- herbicidal activity (Echinocloa crus-galli [1]; 1000 g/ha): very good (a very good herbicidal activity is given at values of at least 85)
- herbicidal activity (Apera spica-venti; 1000 g/ha): very good (a very good herbicidal activity is given at values of at least 85)
- herbicidal activity (Echinocloa crus-galli [2]; 1000 g/ha): very good (a very good herbicidal activity is given at values of at least 85)
- herbicidal activity (Setaria viridis; 1000 g/ha): very good (a very good herbicidal activity is given at values of at least 85)

SMILES: Cc1oc(Br)cc1-c1nc(C2CC2)ncc1-c1ccccc1Br [Ex. 253]
- herbicidal activity (Amaranthus retroflexus; 1000 g/ha): very good (a very good herbicidal activity is given at values of at least 85)
- herbicidal activity (Alopecurus myosuroides; 1000 g/ha): very good (a very good herbicidal activity is given at values of at least 85)
- herbicidal activity (Abutilon theophrasti; 1000 g/ha): good (A good herbicidal activity is given at values of at least 70)

SMILES: Clc1ccccc1-c1cnc(C2CC2)nc1-c1cccnc1 [Ex. 123]
- herbicidal activity (Amaranthus retroflexus; 2000 g/ha): very good (a very good herbicidal activity is given at values of at least 85)
- herbicidal activity (Setaria viridis; 2000 g/ha): good (A good herbicidal activity is given at values of at least 70)

SMILES: CC1(C)OCC(=Cc2nc(C3CC3)ncc2-c2ccccc2Cl)CO1 [Ex. 296]
- herbicidal activity (Abutilon theophrasti; 1000 g/ha): very good (a very good herbicidal activity is given at values of at least 85)

SMILES: Clc1ccccc1-c1cnc(C2CC2)nc1C1CCCS1 (stereo not shown) [Ex. 55]
- herbicidal activity (Amaranthus retroflexus; 1000 g/ha): very good (a very good herbicidal activity is given at values of at least 85)
- herbicidal activity (Setaria viridis; 1000 g/ha): very good (a very good herbicidal activity is given at values of at least 85)

SMILES: CC1(C)OC(c2nc(C3CC3)ncc2-c2ccccc2Cl)C(C)(C)O1 (stereo not shown) [Ex. 266]
- herbicidal activity (Amaranthus retroflexus; 1000 g/ha): very good (a very good herbicidal activity is given at values of at least 85)
- herbicidal activity (Alopecurus myosuroides; 1000 g/ha): very good (a very good herbicidal activity is given at values of at least 85)
- herbicidal activity (Abutilon theophrasti; 1000 g/ha): very good (a very good herbicidal activity is given at values of at least 85)
- herbicidal activity (Apera spica-venti; 1000 g/ha): very good (a very good herbicidal activity is given at values of at least 85)
- herbicidal activity (Echinocloa crus-galli [2]; 1000 g/ha): very good (a very good herbicidal activity is given at values of at least 85)

SMILES: CC(C)CC#Cc1nc(C2CC2)ncc1-c1ccccc1Cl [Ex. 28]
- herbicidal activity (Amaranthus retroflexus; 1163 g/ha): very good (a very good herbicidal activity is given at values of at least 85)
- herbicidal activity (Abutilon theophrasti; 1163 g/ha): good (A good herbicidal activity is given at values of at least 70)

SMILES: CC(C)(C)c1ncc(-c2nc(C3CC3)ncc2-c2ccccc2Cl)o1 [Ex. 294]
- herbicidal activity (Alopecurus myosuroides; 2000 g/ha): very good (a very good herbicidal activity is given at values of at least 85)
- herbicidal activity (Abutilon theophrasti; 2000 g/ha): very good (a very good herbicidal activity is given at values of at least 85)
- herbicidal activity (Echinocloa crus-galli [1]; 2000 g/ha): very good (a very good herbicidal activity is given at values of at least 85)
- herbicidal activity (Apera spica-venti; 2000 g/ha): good (A good herbicidal activity is given at values of at least 70)

SMILES: COC(=O)C(C)c1nc(C2CC2)ncc1-c1ccccc1Br (stereo not shown) [Ex. 85]
- herbicidal activity (Amaranthus retroflexus; 2000 g/ha): good (A good herbicidal activity is given at values of at least 70)
- herbicidal activity (Abutilon theophrasti; 2000 g/ha): very good (a very good herbicidal activity is given at values of at least 85)

SMILES: CC(=O)Cc1nc(C2CC2)ncc1-c1ccccc1Cl [Ex. 146]
- herbicidal activity (Abutilon theophrasti; 2000 g/ha): very good (a very good herbicidal activity is given at values of at least 85)
- herbicidal activity (Echinocloa crus-galli [1]; 2000 g/ha): very good (a very good herbicidal activity is given at values of at least 85)
- herbicidal activity (Apera spica-venti; 2000 g/ha): very good (a very good herbicidal activity is given at values of at least 85)
- herbicidal activity (Echinocloa crus-galli [2]; 2000 g/ha): very good (a very good herbicidal activity is given at values of at least 85)
- herbicidal activity (Setaria viridis; 2000 g/ha): very good (a very good herbicidal activity is given at values of at least 85)

SMILES: Cc1nc(C)c(-c2nc(C3CC3)ncc2-c2cc(C(F)(F)F)ccc2Cl)o1 [Ex. 278]
- herbicidal activity (Amaranthus retroflexus; 1000 g/ha): very good (a very good herbicidal activity is given at values of at least 85)
- herbicidal activity (Abutilon theophrasti; 1000 g/ha): very good (a very good herbicidal activity is given at values of at least 85)
- herbicidal activity (Echinocloa crus-galli [1]; 1000 g/ha): very good (a very good herbicidal activity is given at values of at least 85)
- herbicidal activity (Apera spica-venti; 1000 g/ha): very good (a very good herbicidal activity is given at values of at least 85)
- herbicidal activity (Echinocloa crus-galli [2]; 1000 g/ha): very good (a very good herbicidal activity is given at values of at least 85)

SMILES: Cc1nc(C)c(-c2nc(C3CC3)ncc2-c2ccc(F)cc2Cl)o1 [Ex. 276]
- herbicidal activity (Amaranthus retroflexus; 1000 g/ha): very good (a very good herbicidal activity is given at values of at least 85)
- herbicidal activity (Alopecurus myosuroides; 1000 g/ha): very good (a very good herbicidal activity is given at values of at least 85)
- herbicidal activity (Abutilon theophrasti; 1000 g/ha): very good (a very good herbicidal activity is given at values of at least 85)
- herbicidal activity (Apera spica-venti; 1000 g/ha): very good (a very good herbicidal activity is given at values of at least 85)

SMILES: Cc1nc(C(C)(Br)Br)ncc1-c1ccccc1Cl [Ex. 50]
- herbicidal activity (Amaranthus retroflexus; 500 g/ha): very good (a very good herbicidal activity is given at values of at least 85)
- herbicidal activity (Setaria viridis; 500 g/ha): very good (a very good herbicidal activity is given at values of at least 85)

SMILES: Cn1c(-c2nc(C3CC3)ncc2-c2ccccc2Cl)coc1=O [Ex. 289]
- herbicidal activity (Amaranthus retroflexus; 2000 g/ha): very good (a very good herbicidal activity is given at values of at least 85)
- herbicidal activity (Alopecurus myosuroides; 2000 g/ha): very good (a very good herbicidal activity is given at values of at least 85)
- herbicidal activity (Apera spica-venti; 2000 g/ha): very good (a very good herbicidal activity is given at values of at least 85)
- herbicidal activity (Echinocloa crus-galli [2]; 2000 g/ha): very good (a very good herbicidal activity is given at values of at least 85)
- herbicidal activity (Setaria viridis; 2000 g/ha): very good (a very good herbicidal activity is given at values of at least 85)

SMILES: Clc1cncc(-c2nc(C3CC3)ncc2-c2ccccc2Cl)c1 [Ex. 279]
- herbicidal activity (Amaranthus retroflexus; 1000 g/ha): very good (a very good herbicidal activity is given at values of at least 85)
- herbicidal activity (Alopecurus myosuroides; 1000 g/ha): very good (a very good herbicidal activity is given at values of at least 85)
- herbicidal activity (Abutilon theophrasti; 1000 g/ha): very good (a very good herbicidal activity is given at values of at least 85)
- herbicidal activity (Apera spica-venti; 1000 g/ha): very good (a very good herbicidal activity is given at values of at least 85)
- herbicidal activity (Echinocloa crus-galli [2]; 1000 g/ha): very good (a very good herbicidal activity is given at values of at least 85)

SMILES: Cc1ncoc1-c1nc(C2CC2)ncc1-c1cc(Br)ccc1Br [Ex. 273]
- herbicidal activity (Amaranthus retroflexus; 1000 g/ha): very good (a very good herbicidal activity is given at values of at least 85)
- herbicidal activity (Alopecurus myosuroides; 1000 g/ha): very good (a very good herbicidal activity is given at values of at least 85)
- herbicidal activity (Apera spica-venti; 1000 g/ha): very good (a very good herbicidal activity is given at values of at least 85)
- herbicidal activity (Echinocloa crus-galli [2]; 1000 g/ha): very good (a very good herbicidal activity is given at values of at least 85)
- herbicidal activity (Setaria viridis; 1000 g/ha): very good (a very good herbicidal activity is given at values of at least 85)

SMILES: Cc1ccccc1-c1cnc(C2CC2)nc1C [Ex. 19]
- herbicidal activity (Amaranthus retroflexus; 2000 g/ha): very good (a very good herbicidal activity is given at values of at least 85)
- herbicidal activity (Abutilon theophrasti; 2000 g/ha): very good (a very good herbicidal activity is given at values of at least 85)
